Experimental findings from paper PMC5764959, “Signaling ammonium across membranes through an ammonium sensor histidine kinase” (Nature Communications, 2018) are described below.

Broadly, the Kd is the free concentration of one partner at which half of the binding sites on the other are occupied at equilibrium, for simple one-to-one binding. Read a high Kd as a looser complex. The term stoichiometry N denotes a count of units in the complex or per binding partner.

Assay [1] concerns the target T1, Ks-Amt5 (ammonium sensor histidine kinase, HK domain) (Candidatus Kuenenia stuttgartensis, UniProt Q1Q357).
T1 construct: gene amtb; Ks-Amt5^426–679 (soluble HK domain)
The experiment in a line: SAXS, compaction of the HK domain on nucleotide addition. The format is binding.

For assay [2], the target named is T1, Ks-Amt5 (ammonium sensor histidine kinase, HK domain). Nature of the assay: isothermal titration calorimetry (also SAXS and […] autophosphorylation). In kind it is binding.
For assay [3] the target is unchanged. Nature of the assay: isothermal titration calorimetry. The format is binding. In general terms: ITC needs no label: the signal is the heat of the interaction.
For assay [4], the target named is T2, Ks-Amt5 (ammonium sensor/transducer) (Candidatus Kuenenia stuttgartensis, UniProt Q1Q357). Nature of the assay: microscale thermophoresis (weak; no electrogenic response). In kind it is binding. Set-up: gene amtb; Ks-Amt5.
The target of assay [5] is T2, Ks-Amt5 (ammonium sensor/transducer). The experiment in a line: biochemical. Set-up: gene amtb.
Assay [6] has as its target Ks-Amt5 (kust_3690), full-length ammonium sensor histidine kinase (Candidatus Kuenenia stuttgartiensis). Nature of the assay: crystal structure; full-length Ks-Amt5; space group P6_(3); 1.98 Å; only the Amt domain (residues 1-405) modelled, HK domain disordered.
Assay [7] has the same target. The experiment in a line: SAXS; full-length Ks-Amt5 in 0.09 % CYMAL-5; batch or SEC-SAXS (Superdex 200 10/300); buffer C with 5 % glycerol; 20 °C; molecular weight from forward scattering I(0). Background: SEC sorts molecules by how far they enter the pores of the column.
The target is the same in assay [8]. The experiment in a line: SEC; Superdex 200 26/60; buffer C (20 mM HEPES/NaOH pH 7.5 or 20 mM Tris/HCl pH 8.0, 100 mM NaCl) with 5-10 % glycerol and detergent; 4 °C; self-association of the detergent-solubilized protein.

T1 sequence (Q1Q357 entry or part of it): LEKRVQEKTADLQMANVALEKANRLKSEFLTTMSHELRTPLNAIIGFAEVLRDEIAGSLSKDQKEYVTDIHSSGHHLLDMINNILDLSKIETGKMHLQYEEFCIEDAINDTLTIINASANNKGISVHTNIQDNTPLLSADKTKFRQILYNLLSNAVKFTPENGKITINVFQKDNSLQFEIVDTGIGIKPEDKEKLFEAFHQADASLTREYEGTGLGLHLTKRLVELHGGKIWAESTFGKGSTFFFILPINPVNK
T2 sequence (Q1Q357 1-679): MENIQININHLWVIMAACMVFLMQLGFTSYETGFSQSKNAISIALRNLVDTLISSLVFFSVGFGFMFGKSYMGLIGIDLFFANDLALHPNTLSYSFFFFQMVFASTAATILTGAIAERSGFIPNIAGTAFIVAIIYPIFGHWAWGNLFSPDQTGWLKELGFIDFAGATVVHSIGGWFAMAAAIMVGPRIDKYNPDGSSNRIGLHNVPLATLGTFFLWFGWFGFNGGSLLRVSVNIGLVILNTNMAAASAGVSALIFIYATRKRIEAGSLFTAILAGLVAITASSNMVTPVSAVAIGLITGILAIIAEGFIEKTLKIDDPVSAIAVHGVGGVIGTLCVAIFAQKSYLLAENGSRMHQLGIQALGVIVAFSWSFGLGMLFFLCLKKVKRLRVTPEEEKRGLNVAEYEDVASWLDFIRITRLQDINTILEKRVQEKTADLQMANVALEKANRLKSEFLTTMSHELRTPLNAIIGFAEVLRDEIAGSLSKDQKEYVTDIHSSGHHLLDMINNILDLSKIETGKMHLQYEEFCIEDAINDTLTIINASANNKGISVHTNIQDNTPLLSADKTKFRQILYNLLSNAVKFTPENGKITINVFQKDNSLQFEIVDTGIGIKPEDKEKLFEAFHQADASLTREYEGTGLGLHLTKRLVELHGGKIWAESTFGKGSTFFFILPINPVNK

Turning to `Nc1ncnc2c1ncn2[C@@H]1O[C@H](COP(=O)(O)OP(=O)(O)CP(=O)(O)O)[C@@H](O)[C@H]1O` [APPCP], the “SAXS, compaction of the HK domain on nucleotide addition” value in assay [1] is “change toward a more compact and less-flexible structure when either APPCP or ATP are added to the HK domain”.
Consider `Nc1ncnc2c1ncn2[C@@H]1O[C@H](COP(=O)(O)OP(=O)(O)OP(=O)(O)O)[C@@H](O)[C@H]1O` [ATP], for which the Kd in assay [2] came out at 11.16 ± 0.03 µM.
In assay [3], `Nc1ncnc2c1ncn2[C@@H]1O[C@H](CO[P@](=O)(O)O[P@](=O)(O)O[P@@](=O)(O)S)[C@@H](O)[C@H]1O` [ATPγS] returned a Kd of 36.74 ± 0.05 µM.
In assay [4], `CN` [MA, methylammonium] gave a Kd of 2350 ± 440 µM.
The molecule `N` [NH4^+] displayed a Kd in assay [5] of 41 ± 24 µM.
Regarding “Ks-Amt5 (kust_3690), full-length ammonium sensor histidine kinase (natural protein)”, the stoichiometry N in assay [6], in assay [7] and in assay [8] was 3 in each case.
